Reference: BindingDB's records for doi:10.1016/0960-894X(96)00067-4 (1996)
pKi: −log10 of the molar value.

Experiment: Binding affinity towards sigma receptor in guinea pig brain membrane was determined by using [3H]DTG as the radioligand

Compound OC12C3C4CC5C6C4C1C6C(C53)N2Cc1cccc(Br)c1 (stereo unspecified) [11-(3-bromobenzyl)-11-azahexacyclo[5.4.1.02,6.03,10.04,8.09,12]dodecan-1-ol] has a pKi of 6.96.
